pKi: −log10 of the molar value. Structures can show the parent of a compound that is named as a salt. Where two headings read alike, the source gives them in different places.
What was measured:
rat 5-HT7 receptor = rat 5-HT7 receptor (Rattus norvegicus (Rat), UniProt P32305); assay: r5-HT7 binding assay, competitive radioligand binding with [3H]5-CT
How it was run: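 Whole r5-HT7-transfected HEK-293 cells first received test compound for 10 min. They were then exposed to 100 nM 5-CT for 20 min before lysis and competitive immunoassay of cAMP. Affinity came from displacement of [3H]5-CT on membranes of the same recombinant line, expressed as Ki.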

h5HT2A [1] = biological target: T1, h5HT2A (Homo sapiens (Human), UniProt P28223); assay: h5HT2A binding
T1 sequence (P28223 whole entry): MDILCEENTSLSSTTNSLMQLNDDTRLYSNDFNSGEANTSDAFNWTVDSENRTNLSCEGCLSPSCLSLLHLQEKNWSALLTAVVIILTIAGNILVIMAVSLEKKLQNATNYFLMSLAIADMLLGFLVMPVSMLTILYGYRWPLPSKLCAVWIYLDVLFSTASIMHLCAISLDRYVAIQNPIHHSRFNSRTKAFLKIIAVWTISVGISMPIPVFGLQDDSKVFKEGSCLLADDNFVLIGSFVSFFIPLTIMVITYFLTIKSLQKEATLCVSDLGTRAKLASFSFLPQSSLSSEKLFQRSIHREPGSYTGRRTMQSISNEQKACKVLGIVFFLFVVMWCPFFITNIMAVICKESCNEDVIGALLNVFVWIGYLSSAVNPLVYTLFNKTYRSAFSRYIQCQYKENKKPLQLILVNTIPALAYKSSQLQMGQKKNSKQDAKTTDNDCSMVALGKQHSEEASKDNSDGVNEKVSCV

h5HT2B [2] = biological target: T2, h5HT2B (Homo sapiens (Human), UniProt P41595); assay: h5HT2B binding
T2 sequence (P41595 whole entry): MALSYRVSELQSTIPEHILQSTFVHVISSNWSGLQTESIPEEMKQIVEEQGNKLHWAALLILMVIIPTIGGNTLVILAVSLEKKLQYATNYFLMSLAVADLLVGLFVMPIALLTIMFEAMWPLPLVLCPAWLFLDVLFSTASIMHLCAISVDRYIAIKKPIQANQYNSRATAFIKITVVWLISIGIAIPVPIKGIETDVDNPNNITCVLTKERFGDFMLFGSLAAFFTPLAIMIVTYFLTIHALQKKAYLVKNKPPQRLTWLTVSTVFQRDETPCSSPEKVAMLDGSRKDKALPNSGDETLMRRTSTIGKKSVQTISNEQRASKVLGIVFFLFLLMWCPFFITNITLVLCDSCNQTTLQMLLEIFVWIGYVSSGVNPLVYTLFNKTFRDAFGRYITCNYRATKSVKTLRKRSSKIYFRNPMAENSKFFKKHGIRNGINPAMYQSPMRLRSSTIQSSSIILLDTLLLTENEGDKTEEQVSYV

h5HT2C [3] = biological target: T3, h5HT2C (Homo sapiens (Human), UniProt P28335); assay: h5HT2C binding
T3 sequence (P28335 33-458): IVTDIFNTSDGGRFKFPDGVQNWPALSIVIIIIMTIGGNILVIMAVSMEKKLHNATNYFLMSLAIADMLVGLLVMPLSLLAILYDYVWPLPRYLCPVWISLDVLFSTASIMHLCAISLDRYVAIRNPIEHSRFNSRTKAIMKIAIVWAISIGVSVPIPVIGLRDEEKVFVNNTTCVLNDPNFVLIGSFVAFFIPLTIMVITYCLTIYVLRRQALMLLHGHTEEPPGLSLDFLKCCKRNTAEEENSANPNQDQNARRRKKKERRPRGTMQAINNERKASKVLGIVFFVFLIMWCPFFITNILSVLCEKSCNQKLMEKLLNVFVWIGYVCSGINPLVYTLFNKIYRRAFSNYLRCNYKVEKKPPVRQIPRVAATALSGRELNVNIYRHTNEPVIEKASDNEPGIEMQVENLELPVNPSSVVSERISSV

human SERT = human SERT (Homo sapiens (Human), UniProt P31645); assay: human SERT binding assay with [3H]-citalopram on HEK-293 membranes; settings: read-out: hSERT binding Ki
Sequence of human SERT (P31645 whole entry): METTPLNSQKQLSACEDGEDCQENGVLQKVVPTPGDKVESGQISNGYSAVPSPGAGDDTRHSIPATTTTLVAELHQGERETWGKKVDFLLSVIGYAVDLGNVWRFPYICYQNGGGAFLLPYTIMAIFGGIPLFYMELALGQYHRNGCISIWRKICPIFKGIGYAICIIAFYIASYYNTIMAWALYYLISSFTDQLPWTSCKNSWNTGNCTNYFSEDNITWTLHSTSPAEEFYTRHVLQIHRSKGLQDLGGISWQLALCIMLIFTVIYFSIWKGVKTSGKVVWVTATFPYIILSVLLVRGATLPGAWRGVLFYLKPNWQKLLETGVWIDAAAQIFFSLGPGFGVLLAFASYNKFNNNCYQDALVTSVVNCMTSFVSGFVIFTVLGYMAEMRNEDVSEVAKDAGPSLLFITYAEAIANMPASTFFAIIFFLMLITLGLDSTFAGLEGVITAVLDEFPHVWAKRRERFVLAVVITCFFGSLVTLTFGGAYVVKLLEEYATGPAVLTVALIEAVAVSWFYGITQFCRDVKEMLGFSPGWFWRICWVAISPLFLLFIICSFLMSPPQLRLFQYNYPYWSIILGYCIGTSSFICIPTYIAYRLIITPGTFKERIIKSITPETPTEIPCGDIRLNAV

h5-HT6 = h5-HT6 (Homo sapiens (Human), UniProt P50406); assay: h5-HT6 binding assay with [3H]LSD on HEK-293 membranes; settings: h5-HT6, [3H]LSD, HEK-293 membranes; read-out: h5HT6 binding Ki
Sequence of h5-HT6 (P50406 whole entry): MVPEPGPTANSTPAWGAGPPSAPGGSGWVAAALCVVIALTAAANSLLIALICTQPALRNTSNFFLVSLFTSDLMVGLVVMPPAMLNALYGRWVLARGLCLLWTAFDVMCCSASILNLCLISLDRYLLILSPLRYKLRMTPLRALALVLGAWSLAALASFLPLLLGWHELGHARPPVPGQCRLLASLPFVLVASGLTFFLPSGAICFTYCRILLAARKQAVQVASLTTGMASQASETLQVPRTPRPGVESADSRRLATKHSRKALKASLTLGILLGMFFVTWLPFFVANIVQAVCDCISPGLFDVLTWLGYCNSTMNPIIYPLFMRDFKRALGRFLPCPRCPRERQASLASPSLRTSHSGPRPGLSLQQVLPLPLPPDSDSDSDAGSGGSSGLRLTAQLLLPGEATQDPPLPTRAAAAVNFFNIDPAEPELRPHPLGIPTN
Experimental: Receptor binding was performed using membrane fractions prepared from the HEK-293 cell line recombinantly expressing rat 5-HT7 receptors (NCBI accession NM_022938). Compound affinity for the rat 5-HT7 receptor subtype was evaluated by competitive radioligand binding assays using 5-carboxamido[^3H]tryptamine ([^3H]5-CT) (Amersham Biosciences, cat. 90000403) detection. HitHunter™ cAMP assays are in-vitro based competitive immunoassays. The assay was performed on the HEK-293 cell line stably transfected with r5-HT7 receptor. Cells were pre-incubated with test compounds for 10 minutes. For antagonist testing, the cells were then challenged with 100 nM 5-CT for 20 minutes. Cells were then lysed and cAMP measured according to manufacturers protocol (Amersham, cat. NET791250UC) or [^3H]mesulergine (Amersham, cat. TRK1041). The assay was performed on membranes prepared from HEK-293 cells stably transfected with h5-HT6. Following centrifugation, membranes were resuspended and incubated for 60 min at room temperature with 1.7 nM [^3H]LSD in the presence of increasing concentration of test compounds. Nonspecific binding was defined in the presence of 10 μM clozapine (Tocris, cat. TRK1068). Homogenized HEK-293 membranes expressing the human SERT were incubated in 50 mM Tris-HCl (pH 7.5), 120 mM NaCl, 5 mM KCl with [^3H]-citalopram (3 nM) with or without test compounds. Nonspecific binding was determined in the presence of 10 μM fluoxetine. Radioactivity readouts and Ki values were performed as previously described for r5-HT7. […] Compounds were assayed in their free form or as salts, as indicated in the Examples section above.

h5HT2A [4] = biological target: T1, h5HT2A; assay: h5HT2A binding; remark: listed apart in the source
h5HT2B [5] = biological target: T2, h5HT2B; assay: h5HT2B binding; remark: listed apart in the source
h5HT2C [6] = biological target: T3, h5HT2C; assay: h5HT2C binding; remark: listed apart in the source
r5-HT7 receptor = r5-HT7 receptor (Rattus norvegicus (Rat), UniProt P32305); assay: HitHunter cAMP assay, antagonist testing against 100 nM 5-CT; format: cell-based; settings: antagonist testing, 100 nM 5-CT challenge, HEK-293 r5-HT7; read-out: R5HT7 cAMP pKb (converted)
Sequence of r5-HT7 receptor (P32305 1-435): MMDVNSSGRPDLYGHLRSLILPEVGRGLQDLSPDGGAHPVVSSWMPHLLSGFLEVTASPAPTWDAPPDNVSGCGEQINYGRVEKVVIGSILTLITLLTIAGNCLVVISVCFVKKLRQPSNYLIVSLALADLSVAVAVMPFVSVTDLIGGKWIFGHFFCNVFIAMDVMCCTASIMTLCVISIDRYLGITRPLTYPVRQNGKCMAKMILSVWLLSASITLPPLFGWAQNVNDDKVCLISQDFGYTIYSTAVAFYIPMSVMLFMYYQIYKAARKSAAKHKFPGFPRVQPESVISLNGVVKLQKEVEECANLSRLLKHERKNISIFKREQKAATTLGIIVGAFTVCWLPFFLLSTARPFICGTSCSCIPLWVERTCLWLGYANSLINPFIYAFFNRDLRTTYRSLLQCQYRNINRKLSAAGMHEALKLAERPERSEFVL
How it was run: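 For antagonism, cells expressing the rat receptor are pretreated with compound (10 min) and stimulated with 100 nM 5-CT (20 min). Lysates are assayed for cAMP by competitive immunoassay. Binding uses [3H]5-CT competition on HEK-293 membranes, giving Ki.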

[7] = rat 5-HT7 receptor, HEK-293 membranes

Sequence of rat 5-HT7 receptor (P32305 1-435): as above

Structure (SMILES)	pKi (rat 5-HT7 receptor; rat 5-HT7, HEK-293 membranes)	pKi (h5HT2A [1])	pKi (h5HT2B [2])	pKi (h5HT2C [3])	pKi (human SERT)	pKi (rat 5-HT7 receptor; [7])	pKi (h5-HT6)	pKi (h5HT2A [4])	pKi (h5HT2B [5])	pKi (h5HT2C [6])	Kb (r5-HT7 receptor)
CN1CC[C@@H](Oc2ccc(Cl)cc2Oc2ccc(F)cc2)C1 [Example 271, (R)-3-[4-Chloro-2-(4-fluoro-phenoxy)-phenoxy]-1-methyl-pyrrolidine]	6.18	7.11	7.01	6.46							
Cc1cc(Oc2cc(Cl)ccc2O[C@H]2CCNC2)ccc1F [Example 274, (S)-3-[4-Chloro-2-(4-fluoro-3-methyl-phenoxy)-phenoxy]-pyrrolidine]	5.07	7.00	6.77	6.64							
Clc1ccc(OC2CN(c3ccccc3)C2)c(OC2CNC2)c1 [Example 222, 3-[5-Chloro-2-(1-phenyl-azetidin-3-ol)-phenoxy]-azetidine]	7.74			6.00	5.67						
Fc1ccc(Oc2cc(Cl)ccc2O[C@@H]2CCNC2)cc1 [Example 270, (R)-3-[4-Chloro-2-(4-fluoro-phenoxy)-phenoxy]-pyrrolidine]	6.00	6.92	7.12	6.62							
Cc1ccc(Oc2cc(Cl)ccc2O[C@@H]2CCNC2)cc1 [Example 267, (R)-3-(4-Chloro-2-p-tolyloxy-phenoxy)-pyrrolidine]	5.64	6.92	7.19	6.68							
Clc1ccc(Oc2cc(Cl)ccc2O[C@H]2CCNC2)cc1 [Example 275, (S)-3-[4-Chloro-2-(4-chloro-phenoxy)-phenoxy]-pyrrolidine]	< 5.00	6.28	6.04	6.66							
Brc1ccc(OCCc2ccccc2)c(OC2CNC2)c1 [Example 195, 3-(5-Bromo-2-phenethyloxy-phenoxy)-azetidine]					7.22	8.70	7.57	8.00	8.40	7.38	
COc1ccc2c(c1)CC(Oc1ccc(Cl)cc1OC1CNC1)C2 (stereo not shown) [Example 177, 3-[5-Chloro-2-(5-methoxy-indan-2-yloxy)-phenoxy]-azetidine]					6.58	7.92	6.91	7.46	7.25	6.85	
CC(Oc1ccc(Cl)cc1OC1CNC1)c1cccc(C(F)(F)F)c1 (stereo in doubt) [Example 101, (S)-3-[5-Chloro-2-[1-(3-trifluoromethyl-phenyl)-ethoxy]-phenoxy]-azetidine]					6.82	8.30	6.13	6.50	6.69	6.03	
Clc1ccc(O[C@H]2CCNC2)c(Oc2ccc(Br)cc2)c1 [Example 277, (S)-3-[2-(4-Bromo-phenoxy)-4-chloro-phenoxy]-pyrrolidine]	5.26	6.39	6.57	6.92							
CC(C)c1ccc(Oc2cc(Cl)ccc2O[C@H]2CCNC2)cc1 [Example 278, (S)-3-[4-Chloro-2-(4-isopropyl-phenoxy)-phenoxy]-pyrrolidine]	< 5.00	5.85	5.89	6.48							
Clc1cccc(Oc2cc(Cl)ccc2O[C@H]2CCNC2)c1 [Example 276, (S)-3-[4-Chloro-2-(3-chloro-phenoxy)-phenoxy]-pyrrolidine]	< 5.00	7.08	6.72	6.92							
C[C@@H]1NC[C@H]1Oc1cc(Br)ccc1OCc1cccc(F)c1 (racemic) [Example 219, (±)-trans-3-[5-Bromo-2-(3-fluoro-benzyloxy)-phenoxy]-2-methyl-azetidine]	8.05			7.51	7.17						
Cc1ccc(Oc2cc(Cl)ccc2O[C@@H]2CCN(C)C2)cc1 [Example 268, (R)-3-(4-Chloro-2-p-tolyloxy-phenoxy)-1-methyl-pyrrolidine]	6.09	6.82	6.89	6.42							
Cc1ccc(Oc2cc(Cl)ccc2O[C@H]2CCNC2)cc1 [Example 266, (S)-3-(4-Chloro-2-p-tolyloxy-phenoxy)-pyrrolidine]	< 5.00	6.82	6.89	6.64							
CC(Oc1ccc(Br)cc1OC1CNC1)c1cccc(Cl)c1 (racemic) [Example 111, (±)-3-[5-Bromo-2-[1-(3-chloro-phenyl)-ethoxy]-phenoxy]-azetidine]					6.93	8.00	6.57	7.14	7.16	6.48	
Cc1cccc(Oc2cc(Cl)ccc2O[C@H]2CCNC2)c1 [Example 273, (S)-3-(4-Chloro-2-m-tolyloxy-phenoxy)-pyrrolidine]	< 5.30	7.09	6.80	6.82							
Clc1cccc(COc2ccc(Br)cc2OC2CCNCC2)c1 [Example 65, 4-[5-Bromo-2-(3-chloro-benzyloxy)-phenoxy]-piperidine]					7.85	7.96	7.39				126 nM
Clc1ccc(OCCc2ccccc2)c(OC2CNC2)c1 [Example 186]					7.28	8.30	7.48	7.85	8.10	7.10	
Clc1cccc(CCOc2ccc(Cl)cc2OC2CNC2)c1 [Example 185, 3-[5-Chloro-2-[2-(3-chloro-phenyl)-ethoxy]-phenoxy]-azetidine]					7.54	8.22	6.75	8.10	8.15	7.04	
C[C@@H](Oc1ccc(Cl)cc1OC1CCNCC1)c1cccc(C(F)(F)F)c1 [Example 135, (R)-4-[5-Chloro-2-[1-(3-trifluoromethyl-phenyl)-ethoxy]-phenoxy]-piperidine]					7.02	7.82	5.89	6.85	7.57	6.12	
C[C@@H](Oc1ccc(Br)cc1OC1CNC1)c1cccc(C(F)(F)F)c1 [Example 113, (R)-3-[5-Bromo-2-[1-(3-trifluoromethyl-phenyl)-ethoxy]-phenoxy]-azetidine]						7.96	6.30	6.69	6.91	6.31	
CN1CC(Oc2cc(Cl)ccc2OCc2cccc(Cl)c2)C1 [Example 38, 3-[5-Chloro-2-(3-chloro-benzyloxy)-phenoxy]-1-methyl-azetidine]					7.00	8.22	7.44				10 nM
CC(Oc1ccc(Cl)cc1OC1CNC1)c1ccc(C(F)(F)F)o1 (racemic) [Example 146, (±)-3-[5-Chloro-2-[1-(5-trifluoromethyl-furan-2-yl)-ethoxy]-phenoxy]-azetidine]					7.23	7.92	6.25				7.94 nM
Fc1cccc(COc2ccc(Br)cc2OC2CNC2)c1 [Example 17, 3-[5-Bromo-2-(3-fluoro-benzyloxy)-phenoxy]-azetidine trifluroacetate]					8.40	8.00	7.41				50.1 nM
Clc1cccc(COc2ccc(Br)cc2OC2CNC2)c1 [Example 2, 3-[5-Bromo-2-(3-chloro-benzyloxy)-phenoxy]-azetidine]					9.00	7.92	7.33	7.38	7.13	6.12	31.6 nM
Clc1ccccc1COc1ccc(Br)cc1OC1CNC1 [Example 15, 3-[5-Bromo-2-(2-chloro-benzyloxy)-phenoxy]-azetidine trifluoroacetate]					8.30	7.77	7.35				631 nM

Reference: US9981909B2 (Janssen Pharmaceutica NV, priority 2008, dated 2018)
